Structures can show the parent of a compound that is named as a salt. Where two headings read alike, the source gives them in different places.

Here are results for 28 compounds from patent US7863271B2, “2-aminobenzoxazole carboxamides as 5HT3 modulators” (Albany Molecular Research, Inc., priority 2006, dated 2011).

In this assay the target is T1, 5-HT3 (Homo sapiens, UniProt P46098).
T1 sequence (P46098 24-478): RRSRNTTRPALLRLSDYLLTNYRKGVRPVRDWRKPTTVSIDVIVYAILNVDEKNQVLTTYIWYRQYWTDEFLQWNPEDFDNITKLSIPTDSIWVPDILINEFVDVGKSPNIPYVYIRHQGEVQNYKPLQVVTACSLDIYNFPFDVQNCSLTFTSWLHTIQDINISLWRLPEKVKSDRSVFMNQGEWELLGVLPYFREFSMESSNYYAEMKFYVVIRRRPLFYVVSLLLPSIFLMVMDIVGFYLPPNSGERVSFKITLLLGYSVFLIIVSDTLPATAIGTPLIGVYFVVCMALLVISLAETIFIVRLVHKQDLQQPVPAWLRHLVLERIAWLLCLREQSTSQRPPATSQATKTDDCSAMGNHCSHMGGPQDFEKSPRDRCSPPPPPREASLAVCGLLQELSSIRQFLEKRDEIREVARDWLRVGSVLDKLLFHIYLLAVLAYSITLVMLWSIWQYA
The assay is described as follows: Compound affinity for the human 5-HT3 receptor (Assay B), SPA radioligand binding with [9-methyl-3H]BRL-43694. Also on record: purchased Perkin Elmer. The method, then:
Compound Affinity for the human 5-HT3 Receptor (Assay B)
The relative affinity of the various compounds for the human 5-HT3 receptor was measured in a radioligand binding assay, using a scintillation proximity assay (SPA) format. Test compounds were dissolved to 10 mM in 100% DMSO, then serially diluted at 10× assay concentrations in 100% DMSO in 96-well polypropylene plates and further diluted to 4× assay concentrations with the assay buffer. […] Binding reactions were set up in wells of PicoPlates-96 (Perkin Elmer) by adding consecutively 50 μL of each competing compound or buffer, SPA beads, the radioligand and 5-HT3 receptor membranes. After 60-min incubation at room temperature on a Nutator mixer, plates were centrifuged for 15 min at 1,500 rpm, followed by incubation in the dark for 30 min. Radioactivity was counted in the TopCount microplate counter (Perkin Elmer) for 5 min. […] Specific binding was determined by subtracting nonspecific binding from total binding. All experiments were performed in duplicate using ten concentrations of a competing ligand, with ondansetron included as a control in every run. IC50 values were determined from specific binding data using XLfit4.1 curve fitting software from IDBS Ltd. Ki values were then calculated from the Cheng-Prusoff equation.

Where [1] appears, read: Assay B (method B unless otherwise annotated), read-out: 5-HT3 Ki.

Take `COc1ccccc1Nc1nc2c(C(=O)N[C@H]3C[C@H]4CCC[C@@H](C3)N4C)cccc2o1` [Example 64, Endo-N-(9-methyl-9-azabicyclo[3.3.1]nonan-3-yl)-2-(2-methoxyphenylamino)benzoxazole-4-carboxamide Hydrochloride]: the inhibition constant (Ki) under setting [1] is 16.2 nM.

As to `COCCCNc1nc2c(C(=O)NC3CC4CCCC(C3)N4C)cccc2o1` (stereo not drawn) [Example 39, Endo-N-(9-Methyl-9-azabicyclo[3.3.1]nonan-3-yl)-2-(3-methoxypropylamino)benzoxazole-4-carboxamide Hydrochloride], the Ki under setting [1] was determined as 13.2 nM. Same read-out and setting: next, `C[C@H]1CN(C(=O)C2CCCC2)C[C@H](C)N1c1nc2c(C(=O)NC3CC4CCCC(C3)N4C)cccc2o1` (stereo partly drawn) [Example 133, Endo-N-(9-methyl-9-azabicyclo[3.3.1]nonan-3-yl)-2-((2S,6S-4-(cyclopentanecarbonyl)-2,6-dimethylpiperazin-1-yl)benzoxazole-4-carboxamide Hydrochloride]: 1.8 nM; `CN1[C@@H]2COC[C@H]1C[C@@H](NC(=O)c1cccc3oc(N4CCOCC4)nc13)C2` [Example 44, Endo-N-(9-Methyl-3-oxa-9-azabicyclo[3.3.1]nonan-7-yl)-2-morpholinobenzoxazole-4-carboxamide Hydrochloride]: 323 nM.

On to `CC[C@H]1COCCN1c1nc2c(C(=O)NC3CC4CCCC(C3)N4C)cc(Cl)cc2o1` (stereo partly drawn) [Example 62, Endo-N-(9-Methyl-9-azabicyclo[3.3.1]nonan-3-yl)-6-chloro 2-((S-3-ethylmorpholino)benzoxazole-4-carboxamide Hydrochloride], for which the Ki under setting [1] is 6.3 nM.

As for `C[C@H]1CN(C(=O)c2ccccc2)C[C@H](C)N1c1nc2c(C(=O)NC3CC4CCCC(C3)N4C)cccc2o1` (stereo partly drawn) [Example 117, Endo-N-(9-methyl-9-azabicyclo[3.3.1]nonan-3-yl)-2-((2S,6S)-4-benzoyl-2,6-dimethylpiperazin-1-yl)benzoxazole-4-carboxamide Hydrochloride], under setting [1], the inhibition constant Ki amounted to 2.3 nM.

As to `CN1[C@@H]2CCC[C@H]1C[C@@H](NC(=O)c1c(F)ccc3oc(N)nc13)C2` [Example 128, Endo-N-(9-Methyl-9-azabicyclo[3.3.1]nonan-3-yl)-2-amino-5-fluorobenzoxazole-4-carboxamide Hydrochloride], the Ki under setting [1] is 124 nM. Still for that read-out and setting: next, `CN1C2CCCC1CC(NC(=O)c1cc(Cl)cc3oc(N4CCOC[C@@H]4C(C)(C)C)nc13)C2` (stereo partly drawn) [Example 80, Endo N-(9-Methyl-9-azabicyclo[3.3.1]nonan-3-yl)-2-((S)-3-tert-butylmorpholino)-6-chloro-benzoxazole-4-carboxamide Hydrochloride]: 29.4 nM. Consider `CN1[C@@H]2CCC[C@H]1C[C@@H](NC(=O)c1cccc3oc(NC4CCCCC4)nc13)C2` [Example 70, Endo-N-(9-Methyl-9-azabicyclo[3.3.1]nonan-3-yl)-2-(cyclohexylamino)benzoxazole-4-carboxamide Hydrochloride], for which the Ki under setting [1] is 19.2 nM. The same measure, in the same setting: next, `C[C@H]1COCCN1c1nc2c(C(=O)NC3CC4CCCC(C3)N4C)cc(Cl)cc2o1` (stereo partly drawn) [Example 106, Endo-6-Chloro-N-(9-methyl-9-azabicyclo[3.3.1]nonan-3-yl)-2-((S)-3-methylmorpholino)benzoxazole-4-carboxamide Hydrochloride]: 12.6 nM; `CC(C)[C@H]1COCCN1c1nc2c(C(=O)NC3CC4CCCC(C3)N4C)cccc2o1` (stereo partly drawn) [Example 48, Endo-N-(9-Methyl-9-azabicyclo[3.3.1]nonan-3-yl)-2-((S)-3-isopropylmorpholino)benzoxazole-4-carboxamide Hydrochloride]: 6 nM. Regarding `CN1C[C@H]2C[C@H](NC(=O)c3cccc4oc(Nc5ccccc5)nc34)C[C@@H](C1)N2C` [Example 52, Exo-N-(3,9-Dimethyl-3,9-diazabicyclo[3.3.1]nonan-7-yl)-2-(phenylamino)benzoxazole-4-carboxamide Hydrochloride], affinity was put at a Ki of 27.6 nM. In the case of `C[C@@H]1CNCCN1c1nc2c(C(=O)N[C@H]3C[C@H]4CCC[C@@H](C3)N4C)cccc2o1` [Example 41b, Endo-N-(9-Methyl-9-azabicyclo[3.3.1]nonan-3-yl)-2-[(R)-2-methylpiperazin-1-yl]benzoxazole-4-carboxamide Hydrochloride], the inhibition constant (Ki) under setting [1] worked out at 125 nM. The same measure, in the same setting: the result for `C[C@H]1CN(C(=O)N(C)C)C[C@H](C)N1c1nc2c(C(=O)NC3CC4CCCC(C3)N4C)cccc2o1` (stereo partly drawn) [Example 136, Endo-N-(9-methyl-9-azabicyclo[3.3.1]nonan-3-yl)-2-((2S,6S)-2,6-dimethyl-4-(dimethylcarbamoyl)piperazin-1-yl)benzoxazole-4-carboxamide Hydrochloride] reads 2.6 nM. Same read-out and setting: next, `C=CCN1C[C@H](C)N(c2nc3c(C(=O)NC4CC5CCCC(C4)N5C)cccc3o2)C[C@H]1C` (relative stereo) [Example 147, Endo-N-(9-Methyl-9-azabicyclo[3.3.1]nonan-3-yl)-2-((2S*,5R*)-4-allyl-2,5-dimethylpiperazin-1-yl)benzoxazole-4-carboxamide Dihydrochloride]: 10.8 nM; `CN1[C@@H]2CCC[C@H]1C[C@@H](NC(=O)c1cccc3oc(N4CCNc5ccccc54)nc13)C2` [Example 29, Endo-N-(9-Methyl-9-azabicyclo[3.3.1]non-3-yl)-2-(3,4-dihydroquinoxaline-1(2H)-yl)benzoxazole-4-carboxamide Dihydrochloride]: 3.6 nM. With `C[C@H]1CNC[C@H](C)N1c1nc2c(C(=O)NC3CC4CCCC(C3)N4C)ccc(F)c2o1` (stereo partly drawn) [Example 107, Endo-N-(9-Methyl-9-azabicyclo[3.3.1]nonan-3-yl)-2-((2S,6S)-2,6-dimethylpiperazine-1-yl)-7-fluorobenzoxazole-4-carboxamide hydrochloride], under setting [1], the Ki was determined as 14.2 nM. Take “Endo-N-(9-Methyl-9-azabicyclo[3.3.1]nonan-3-yl)-2-((3aS,6aS)-hexahydropyrrolo[3,4-b]pyrrol-5(1H)-yl)benzoxazole-4-carboxamide Hydrochloride [Example 46]”: the Ki under setting [1] was 284 nM.

As for `C[C@@H]1CN(c2nc3c(C(=O)N[C@@H]4CN5CCC4CC5)cccc3o2)C[C@H](C)O1` [Example 18, (S)—N-(quinuclidine-8-yl)-2-((2S,6R)-2,6-dimethylmorpholino)benzoxazole-4-carboxamide Hydrochloride], under setting [1], the Ki stood at 443 nM. Still for that read-out and setting: the result for `O=C(NC1CN2CCC1CC2)c1cccc2oc(NCC(F)(F)F)nc12` (stereo not shown) [Example 109, Hydrochloride] reads 47.9 nM; that for `CCNc1nc2c(C(=O)N[C@H]3C[C@H]4CCC[C@@H](C3)N4C)cccc2o1` [Example 105, Hydrochloride], 3.3 nM; that for `C[C@H]1CN(C(=O)N2CCCC2)C[C@H](C)N1c1nc2c(C(=O)NC3CC4CCCC(C3)N4C)cccc2o1` (stereo partly drawn) [Example 140, Endo-N-(9-methyl-9-azabicyclo[3.3.1]nonan-3-yl)-2-((2S,6S)-2,6-dimethyl-4-(pyrrolidine-1-carbonyl)piperazin-1-yl)benzoxazole-4-carboxamide hydrochloride], 2.2 nM. The same measure, in the same setting: the result for `CNc1nc2c(C(=O)NC3CN4CCC3CC4)cccc2o1` [Example 113, (S)—N-(quinulidin-8-yl)-2-methylaminobenzoxazole-4-carboxamide Hydrochloride] reads 14.5 nM; that for `CC[C@H]1COCCN1c1nc2c(C(=O)NC3CC4CCCC(C3)N4C)cccc2o1` (stereo partly drawn) [Example 36, Endo-N-(9-Methyl-9-azabicyclo[3.3.1]nonan-3-yl)-2-((S)-3-ethylmorpholine)benzoxazole-4-carboxamide Hydrochloride], 4.7 nM.

For `CN1CC2CC(NC(=O)c3cccc4oc(N5CCOCC5)nc34)CC(C1)N2C` (stereo not drawn) [Example 43, Exo-N-(3,9-Dimethyl-3,9-diazabicyclo[3.3.1]nonan-7-yl)-2-morpholinobenzoxazole-4-carboxamide Hydrochloride], the Ki under setting [1] worked out at 480 nM. On the same count and under the same terms, the result for `CN1[C@@H]2CCC[C@H]1C[C@@H](NC(=O)c1cccc3oc(NCCCO)nc13)C2` [Example 40, Endo-N-(9-Methyl-9-azabicyclo[3.3.1]nonan-3-yl)-2-(3-hydroxypropylamino)benzoxazole-4-carboxamide Hydrochloride] reads 7.8 nM; that for `CN1[C@@H]2CCC[C@H]1C[C@@H](NC(=O)c1cccc3oc(N4CCNC(=O)C4)nc13)C2` [Example 86, Endo-N-(9-Methyl-9-azabicyclo[3.3.1]nonan-3-yl)-2-(3-oxopiperazine-1-yl)benzoxazole-4-carboxamide Hydrochloride], 66.2 nM.

For `CN1[C@@H]2CCC[C@H]1C[C@@H](NC(=O)c1cccc3oc(N4CCC(=O)CC4)nc13)C2` [Example 92, Endo-N-(9-methyl-9-azabicyclo[3.3.1]nonan-3-yl)-2-(4-oxopiperidin-1-yl)benzoxazole-4-carboxamide Hydrochloride], under setting [1], the Ki stood at 21.2 nM.
